According to patent US11708366B2, “Heteroaryl substituted spiropiperidinyl derivatives and pharmaceutical uses thereof” (Novartis AG, priority 2020, dated 2023):

Legend:
LTC4S [1] = target: T1, LTC4S (Homo sapiens (Human), UniProt Q16873); test: Human LTC4S enzymatic assay (HTRF detection of LTC4-Me); assay type: biochemical
Experimental: A. Human LTC4S Enzymatic Assay:
LTC4 synthase catalyzes the conversion of Leukotriene A4 (LTA4) to Leukotriene C4 (LTC4) in the presence of reduced glutathione (GSH) as a co-substrate. For compound testing, compounds are delivered as 10 mM stock solutions in 90% DMSO in matrix tubes. From this, a 1:3 dilution dose response series is prepared with a starting concentration of 30 μM to 0.1 nM. For the enzymatic assay 97.5 nL of compound/DMSO solution is transferred to each well and 5 μL enzyme solution (assay buffer: 50 mM bis-tris propane pH 7.3, 250 mM NaCl, 10 mM MgCl2, 0.001% MGN3) is added to the wells. […] The enzyme compound mixture is incubated at room temperature for 15 minutes prior to the addition of 5 μL substrate solution. […] A final substrate concentration of 400 μM GSH and 5 μM LTA4-Me is chosen.
The LTA4-Me is obtained commercially in 2% triethylamine/hexane solvent. As this solvent is incompatible with the HTRF assay it has to be exchanged with DMSO according to following procedure: add 50 μL of 100% DMSO to 50 μL LTA4-Me (3 mM) in a 2 mL Eppendorf tube and mix gently by inverting the tube. The triethylamine/hexane is evaporated under a constant argon flux at room temperature. The DMSO-LTA4-Me (3 mM) is aliquoted and stored at −20° C. for not longer than 4 weeks, as it is not stable in DMSO due to its oxidizing properties.
Upon addition of the substrate, the plate is immediately placed on a shaker for 5 min at room temperature. Immediately after the 5 min incubation 5 μL of H2O2 solution is added to all wells to stop the reaction. The plate contents are mixed before the addition of detection reagents. […] For the detection of the product of the enzymatic reaction LTC4-Me, the Cisbio LTC4-HTRF kit is used as the assay is compatible with the detection of LTC4-Me. 5 μL of diluted LTC4-d2 conjugate (according to manufacturer's protocol) are added to all wells of the assay plate and the contents gently mixed and incubated for 5 minutes at room temperature. […] The percent inhibition for each point of an inhibition curve is calculated after data interpolation using the LTC4-Me standard curve, to convert the HTRF signal to the amount of LTC4-Me produced within the LTC4S catalyzed reaction on each plate. The data is analyzed using parametric curve fitting to determine IC50 values of LTC4S inhibitors.

LTC4S [2] = target: T1, LTC4S; test: Human whole blood HTRF assay (LTC4 release after calcium ionophore A23187); assay type: cell-based; conditions: calcium ionophore A23187 stimulation, LTC4 by HTRF
[3] = 0.75 nM enzyme, 400 μM GSH, 5 μM LTA4-Me, 15 min pre-incubation, read-out: human LTC4S IC50 (enzymatic assay)
[4] = human whole blood diluted 1:3, 4 h incubation, read-out: human whole blood HTRF IC50

Row | Compound | IC50 (LTC4S [1]) | IC50 (LTC4S [2]; human whole blood HTRF IC50, human whole blood diluted 1:3, 4 h incubation) | IC50 (LTC4S [1]; [3]) | IC50 (LTC4S [2]; [4])
1 | O=C1CCCC2(CCN(c3cn(-c4ccc(F)cc4)nn3)CC2)N1c1ccc(Cl)c(F)c1 [Example 29, 1-(4-chloro-3-fluorophenyl)-9-(1-(4-fluorophenyl)-1H-1,2,3-triazol-4-yl)-1,9-diazaspiro[5.5]undecan-2-one] | 57 nM | 180 nM |  | 
2 | O=C1CCCC2(CCN(c3ccn(-c4ccc(F)cc4)n3)CC2)N1c1ccc(Cl)c(F)c1 [Example 30, 1-(4-chloro-3-fluorophenyl)-9-(1-(4-fluorophenyl)-1H-pyrazol-3-yl)-1,9-diazaspiro[5.5]undecan-2-one] |  |  | 13 nM | 360 nM
3 | Cn1cc(-c2ccc(F)cc2)nc(N2CCC3(CCCC(=O)N3c3ccc(Cl)c(F)c3)CC2)c1=O [Example 9, 1-(4-chloro-3-fluorophenyl)-9-(6-(4-fluorophenyl)-4-methyl-3-oxo-3,4-dihydropyrazin-2-yl)-1,9-diazaspiro[5.5]undecan-2-one] |  |  | 2 nM | 48 nM
